Test results published in patent US4175125A, “Method for treating methicillin resistant staphylococcus aureus” (Eli Lilly and Company, priority 1978, dated 1979).
In brackets after ≈: the same amount, converted by molar mass. Like-named read-outs stand apart in the source and are kept apart here. One block for each compound: values may come before it.

How the values were obtained:
[1] = test system: methicillin-resistant Staphylococcus aureus; test: Gradient plate test (MIC) against methicillin-resistant Staphylococcus aureus; assay type: cell-based; details: Staphylococcus aureus, read-out: minimum inhibitory concentration (MIC)
Method: The method used is essentially that described by Bryson and Szybalski in 1952 (Science 116:45-46). The inoculum treatment method used for penicillin resistant Staphylococci was reported by Godzeski et al in Antimicrobial Agents and Chemotherapy, May, 1969, pp. 547-554.
A standard Falcon square plastic petri dish is used. A layer of agar (10 ml.) is poured into one of the square dishes, the dish tipped 5 mm. off the horizontal, and the agar layer allowed to harden in this position. This bottom layer of agar contains the antibiotic, the serum, and/or other material to be tested. The medium is Difco Penassay Agar containing 2 percent agar. We routinely used 4 ml. of human or horse serum for "serum-inactivation" testing. […] Therefore, serum is routinely added only to the bottom layer.
After the bottom, slanted layer of agar medium has hardened, the plate is placed flat and another 10 ml. of medium added and allowed to harden.
The inoculum of resistant Staphylococci, as described, is prepared by diluting the water suspension 1/50 in 0.25 percent agar in sterile water or saline. For Gram negative organisms, an overnight broth culture is diluted 1/50 in the 0.25 percent agar-water. This dilution is thoroughly shaken to evenly suspend the bacteria. To streak the plate, we use a 1 ml. pipet containing an aliquot of the final […] agar dilution. After a little practice, a smooth even stroke of inoculum can be laid down very rapidly. The trick is in the smoothness of the streak--it must be accomplished uniformly and quickly.
After 24 hours incubation at 35°-37° C. the plates are read by simply measuring the length of bacterial growth as a percentage of the entire streak distance which is then converted to the percent of antibiotic concentration in the plate.
Average values of duplicate measurements are calculated and the M.I.C.'s reported are average of 2 streaks on the plate and from 2 to 3 duplicate plates. Eight streaks can be easily placed on each plate. If sharp end points are not obtained, the middle concentration between the beginning of inhibition of the streak to the end of growth is measured. The concentration of the antibiotic under examination is varied from plate to plate in a series as follows: […]
This method of screening penicillins and cephalosporins is quite satisfactory. Control plates containing penicillin and staphcillin or prostaphlin, or other control antibiotic, are used daily for the resistant staphylococcal activity screen. The gradient plate method has shown differences between antibiotics that were not apparent by any other methods of screening. […] We believe that the gradient plate screen is more sensitive to small differences between related antibiotics than other methods and pictures of the plates can provide a permanent record. The method also lends itself readily to modification of specific purposes--e.g., cross gradients.
The compounds listed below are examples of compounds useful in the method of this invention. After the compound name there is given in parentheses, where tested, the minimum inhibitory concentrations (MIC) in micrograms per milliliter (μg/ml) for the compound in the above described gradient plate procedure test against methicillin-resistant Staphylococcus aureus, (in the absence of blood serum/in the presence of 20 percent blood serum).
and pharmaceutically acceptable salts thereof. The abbreviation "s.z." means skip zones.

[2] = test system: Staphylococcus aureus cultures; test: Modified Bauer-Kirby Disc Susceptibility Test (Example 11); assay type: cell-based; parameters: zone of inhibition: dose or concentration left out as unconfirmed; details: for zone of inhibition: Staphylococcus aureus; for Change 37°-30°: 30 mg Disc
Method: This example exemplifies the antibiotic activity of 7-[2'-(3"-chloro-4"-fluorophenylthio)acetamido]cephalosporanic acid, a water soluble compound, described in Example 8, against various Staphylococcus aureus cultures, in a modified Bauer-Kirby Disc Susceptibility Test (Bauer, A. W., W. M. M. Kirby, J. C. Sherris, and M. Turck, 1966, Amer. J. Clin. Pathol. 45:493-496). In this test the cultures were incubated at both 37° C. or 30° C. […] 16, 1968, the heterogeneity of methicilllin-resistant S. aureus is manifested by incubation at 30° C.

[3] = test system: Streptococcus pyogenes, strain C203; test: Streptococcus pyogenes infection in mice, median effective dose (Example 12); assay type: in vivo
Method: The compound 7-[2"-(3"-chloro-4"-fluorophenyltio)acetamido]cephalosporanic acid, prepared as described in Example 8, was tested for antibiotic effectiveness against Streptococcus pyogenes, strain C203 infections in mice, and is compared with the effectiveness of cephaloridine in the same test. Experience has shown with other compounds, some of which are now commercial antibiotics, that a compound effective against Streptococcus pyrogenes, strain C203 in this test will be effective against Staphylococcus aureus strains in clinical use. This is intended as further evidence that the compounds of the method of this invention should be effective antibiotics in clinical situations.
In this test, a standard in vivo test method described by Wick, W. E., F. Streightoff, and D. H. Holmes. 1961, in J. Bacteriol., 81: 233-235 was used. The oral and subcutaneous median effective doses (ED50) necessary to cure 50 percent of the mice were calculated according to the method of Reed and Muench (Reed, L. J., and H. Meunch. 1938. Am. J. Hyg. 27: 493-497) The results were as follows: […]

[4] = culture 3055 (penicillin sensitive), 30°, read-out: disc susceptibility (zone) at 30°
[5] = culture 3055 (penicillin sensitive), 37°, read-out: disc susceptibility (zone) at 37°
[6] = culture 3074 (methicillin sensitive, penicillinase producing), 30°, read-out: disc susceptibility (zone) at 30°
[7] = culture 3074 (methicillin sensitive, penicillinase producing), 37°, read-out: disc susceptibility (zone) at 37°
[8] = culture 3125 (methicillin resistant), 30°, read-out: disc susceptibility (zone) at 30°
[9] = culture 3125 (methicillin resistant), 37°, read-out: disc susceptibility (zone) at 37°
[10] = culture 3130 (methicillin resistant), 30°, read-out: disc susceptibility (zone) at 30°
[11] = culture 3130 (methicillin resistant), 37°, read-out: disc susceptibility (zone) at 37°
[12] = culture 3131 (methicillin resistant), 30°, read-out: disc susceptibility (zone) at 30°
[13] = culture 3131 (methicillin resistant), 37°, read-out: disc susceptibility (zone) at 37°
[14] = culture 3132 (methicillin resistant), 30°, read-out: disc susceptibility (zone) at 30°
[15] = culture 3132 (methicillin resistant), 37°, read-out: disc susceptibility (zone) at 37°
[16] = culture 3133 (methicillin resistant), 30°, read-out: disc susceptibility (zone) at 30°
[17] = culture 3133 (methicillin resistant), 37°, read-out: disc susceptibility (zone) at 37°
[18] = culture 3134 (methicillin resistant), 30°, read-out: disc susceptibility (zone) at 30°
[19] = culture 3134 (methicillin resistant), 37°, read-out: disc susceptibility (zone) at 37°
[20] = culture 3135 (methicillin resistant), 30°, read-out: disc susceptibility (zone) at 30°
[21] = culture 3135 (methicillin resistant), 37°, read-out: disc susceptibility (zone) at 37°
[22] = culture 3136 (methicillin resistant), 30°, read-out: disc susceptibility (zone) at 30°
[23] = culture 3136 (methicillin resistant), 37°, read-out: disc susceptibility (zone) at 37°
[24] = culture 3137 (methicillin resistant), 30°, read-out: disc susceptibility (zone) at 30°
[25] = culture 3137 (methicillin resistant), 37°, read-out: disc susceptibility (zone) at 37°
[26] = culture 3138 (methicillin resistant), 30°, read-out: disc susceptibility (zone) at 30°
[27] = culture 3138 (methicillin resistant), 37°, read-out: disc susceptibility (zone) at 37°
[28] = culture 3139 (methicillin resistant), 30°, read-out: disc susceptibility (zone) at 30°
[29] = culture 3139 (methicillin resistant), 37°, read-out: disc susceptibility (zone) at 37°
[30] = culture 3140 (methicillin resistant), 30°, read-out: disc susceptibility (zone) at 30°
[31] = culture 3140 (methicillin resistant), 37°, read-out: disc susceptibility (zone) at 37°
[32] = culture H232 (methicillin sensitive, penicillinase producing), 30°, read-out: disc susceptibility (zone) at 30°
[33] = culture H232 (methicillin sensitive, penicillinase producing), 37°, read-out: disc susceptibility (zone) at 37°

MIC ([1]; in the absence of blood serum): 2 µg/mL (≈ 4.07 µM)
MIC ([1]; in the presence of 20 percent blood serum): 8.7 µg/mL
Compound: CC(=O)OCC1=C(C(=O)O)N2C(=O)C(NC(=O)CSc3cc(Cl)cc(Cl)c3)C2SC1 (stereo not shown) [Example 3, 7-(3,5-Dichlorophenylthioacetamido)-cephalosporanic acid]
zone of inhibition [2, 4]: > 35 mm
zone of inhibition [2, 5]: > 35 mm
zone of inhibition [2, 6]: 35 mm
zone of inhibition [2, 7]: 35 mm
zone of inhibition [2, 8]: 37 mm
zone of inhibition [2, 9]: 34.2 mm
zone of inhibition [2, 10]: 33.6 mm
zone of inhibition [2, 11]: 32 mm
zone of inhibition [2, 12]: 31.8 mm
zone of inhibition [2, 13]: 30.6 mm
zone of inhibition [2, 14]: 32.6 mm
zone of inhibition [2, 15]: 31 mm
zone of inhibition [2, 16]: 30.8 mm
zone of inhibition [2, 17]: 29 mm
zone of inhibition [2, 18]: 33 mm
zone of inhibition [2, 19]: 29.8 mm
zone of inhibition [2, 20]: 29.6 mm
zone of inhibition [2, 21]: 28.3 mm
zone of inhibition [2, 22]: 29.8 mm
zone of inhibition [2, 23]: 35 mm
zone of inhibition [2, 24]: 26 mm
zone of inhibition [2, 25]: 26.2 mm
zone of inhibition [2, 26]: 29.4 mm
zone of inhibition [2, 27]: 27 mm
zone of inhibition [2, 28]: 32.2 mm
zone of inhibition [2, 29]: 36 mm
zone of inhibition [2, 30]: 30.2 mm
zone of inhibition [2, 31]: 28.8 mm
zone of inhibition [2, 32]: 32.6 mm
zone of inhibition [2, 33]: 34.1 mm
Change 37°-30° ([2]; culture 3074): 0 mm
Change 37°-30° ([2]; culture 3125): +2.8 mm
Change 37°-30° ([2]; culture 3130): +1.6 mm
Change 37°-30° ([2]; culture 3131): +1.2 mm
Change 37°-30° ([2]; culture 3132): +1.6 mm
Change 37°-30° ([2]; culture 3133): +1.8 mm
Change 37°-30° ([2]; culture 3134): +3.2 mm
Change 37°-30° ([2]; culture 3135): +1.3 mm
Change 37°-30° ([2]; culture 3136): +5.2 mm
Change 37°-30° ([2]; culture 3137): -0.2 mm
Change 37°-30° ([2]; culture 3138): +2.4 mm
Change 37°-30° ([2]; culture 3139): -3.8 mm
Change 37°-30° ([2]; culture 3140): +1.4 mm
Change 37°-30° ([2]; culture H232): -1.5 mm

Compound: CC(=O)OCC1=C(C(=O)O)N2C(=O)[C@@H](NC(=O)Cc3cccs3)[C@H]2SC1 [Cephalothin, cephalothin, reference compound]
zone of inhibition [2, 4]: > 35 mm
zone of inhibition [2, 5]: > 35 mm
zone of inhibition [2, 6]: 32.1 mm
zone of inhibition [2, 7]: 31.8 mm
zone of inhibition [2, 8]: 33.8 mm
zone of inhibition [2, 9]: 33.4 mm
zone of inhibition [2, 10]: 20.2 mm
zone of inhibition [2, 11]: 32.8 mm
zone of inhibition [2, 12]: 16.6 mm
zone of inhibition [2, 13]: 29.6 mm
zone of inhibition [2, 14]: 17.6 mm
zone of inhibition [2, 15]: 28.6 mm
zone of inhibition [2, 16]: 12.8 mm
zone of inhibition [2, 17]: 28.8 mm
zone of inhibition [2, 18]: 12.1 mm
zone of inhibition [2, 19]: 27.8 mm
zone of inhibition [2, 20]: 11.8 mm
zone of inhibition [2, 21]: 28 mm
zone of inhibition [2, 22]: 20.8 mm
zone of inhibition [2, 23]: 35.6 mm
zone of inhibition [2, 24]: 0 mm
zone of inhibition [2, 25]: 17.8 mm
zone of inhibition [2, 26]: 11.3 mm
zone of inhibition [2, 27]: 26.2 mm
zone of inhibition [2, 28]: 27 mm
zone of inhibition [2, 29]: 32 mm
zone of inhibition [2, 30]: 10.4 mm
zone of inhibition [2, 31]: 29.7 mm
zone of inhibition [2, 32]: 33.2 mm
zone of inhibition [2, 33]: 33.4 mm
Change 37°-30° ([2]; culture 3074): +0.3 mm
Change 37°-30° ([2]; culture 3130): -12.6 mm
Change 37°-30° ([2]; culture 3131): -13.0 mm
Change 37°-30° ([2]; culture 3132): -11.0 mm
Change 37°-30° ([2]; culture 3133): -16.0 mm
Change 37°-30° ([2]; culture 3134): -15.7 mm
Change 37°-30° ([2]; culture 3135): -16.2 mm
Change 37°-30° ([2]; culture 3136): -14.8 mm
Change 37°-30° ([2]; culture 3137): > 17.8 mm
Change 37°-30° ([2]; culture 3138): -14.9 mm
Change 37°-30° ([2]; culture 3139): -5.0 mm
Change 37°-30° ([2]; culture 3140): -13.3 mm
Change 37°-30° ([2]; culture H232): -0.2 mm

Compound: O=C(Cc1cccs1)N[C@@H]1C(=O)N2C(C(=O)[O-])=C(C[n+]3ccccc3)CS[C@H]12 [Cephaloridine, cephaloridine, reference compound]
ED50 ([3]; C203, po): 0.323 mg/kg
ED50 ([3]; C203, sc): 0.1 mg/kg
